Data as given in patent publication US20240082296A1, “TREATMENT OF MUSCLE ATROPHY USING DEXTRAN SULFATE” (TX MEDIC AB, priority 2020, published 2024).

Tested on: hepatocyte growth factor (HGF)
Assay: circulating HGF after dextran sulfate injection in ALS patients (Example 2)
Assay type: in vivo, human
Conditions: peak at 2.5 hours after injection; before 820±581; p<0.001
Protocol: A clinical trial in the form of a Phase IIa, single-center, open label, single-arm study where the safety, tolerability and possible efficacy of subcutaneously administered dextran sulfate was evaluated in patients with ALS of intermediate progression rate. The clinical trial was conducted at the Sahlgrenska University Hospital, Gothenburg, Sweden and was overseen and approved by the Ethics Committee of the University of Gothenburg and by the Swedish Medical Products Agency.
Dextran sulfate (Tikomed AB, Viken, Sweden, WO 2016/076780) was administered at 1 mg/kg by […] subcutaneous injection once a week for five weeks to 13 human patients suffering from ALS.
Blood samples were drawn at defined study intervals by a venous catheter into vacutainer tubes. Laboratory analyses of blood plasma were performed immediately after collection by the Clinical Chemistry Laboratory at the Sahlgrenska University Hospital.
This indicates the potential for direct myogenic, as well as indirect neurotrophic, HGF-mediated effects on muscle atrophy after dextran sulfate administration.

dextran sulfate
circulating HGF, peak: 37.9 ± 14.2 ng/mL
